Measured values taken from paper PMC4891657, “Orexin 2 Receptor Antagonism is Sufficient to Promote NREM and REM Sleep from Mouse to Man” (Scientific Reports, 2016).
Residue numbers refer to the chain shown, from its start. pKi: −log10 of the molar value.

Key:
[1] = target: T1, OX2R (Canis lupus familiaris, UniProt Q9TUP7); experiment: Inhibition of orexin-peptide-A-induced calcium mobilization in CHO cells, dog OX2R; format: cell-based; details: for fold OX2R selectivity (Kb): OX1R Kb / OX2R Kb
T1 construct: expressed in transfected cells; host or cells: CHO-K1
T1 sequence (Q9TUP7 1-444): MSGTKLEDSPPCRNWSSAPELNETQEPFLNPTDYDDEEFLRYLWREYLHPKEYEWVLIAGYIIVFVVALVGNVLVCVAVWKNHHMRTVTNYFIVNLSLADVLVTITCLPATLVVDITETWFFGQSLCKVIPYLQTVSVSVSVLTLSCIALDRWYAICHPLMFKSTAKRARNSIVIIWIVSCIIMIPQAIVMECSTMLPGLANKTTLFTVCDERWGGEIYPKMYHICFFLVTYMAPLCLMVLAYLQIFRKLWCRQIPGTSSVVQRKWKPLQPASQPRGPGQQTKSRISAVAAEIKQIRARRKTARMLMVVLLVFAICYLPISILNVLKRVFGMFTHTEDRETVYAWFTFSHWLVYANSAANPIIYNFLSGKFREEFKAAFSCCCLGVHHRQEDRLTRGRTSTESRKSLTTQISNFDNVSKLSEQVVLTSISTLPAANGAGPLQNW
Procedure: (§1) MK-1064 was evaluated for its ability to inhibit orexin-peptide-A-induced calcium mobilization in CHO cell lines separately expressing OX1R and OX2R from mice, rats, rabbits, dogs, rhesus monkeys and humans.
(§2) Binding and functional blockade of OX1R and OX2R with MK-1064 relative to other 2-SORAs and the DORA, MK-6096, were assessed using membranes from Chinese hamster ovary (CHO)-K1 cells (American Type Tissue Collection, Manassas, VA) transfected to express human, mouse, rat, rabbit, dog, or rhesus monkey OX1R or OX2R receptors, as described previously. The kinetics of binding to human OX2R was assessed by radioligand displacement on CHO-K1 cells expressing the receptor. […] The ON rate analysis was performed by presoaking GF/B filters in 0.3% polyethyleneimine (Sigma) using a Skatron 12-well cell harvester and cold buffer at the indicated time points after addition. For OFF rate determination, binding reactions were allowed to proceed to equilibrium and terminated with 1000x [Kd] of unlabeled antagonist and filtered as above at pre-determined time points. Ultima Gold^TM (PerkinElmer 6013327) scintillation cocktail was added to each filter disc and counted on a PerkinElmer TriCarb 2910 scintillation counter. Data were analyzed using GraphPad® Prism v 6.04 (San Diego, CA, USA). The KON rate was determined according to the equation, KON = (KOBS − KOFF)/[ligand].

[2] = target: T2, OX1R (Canis lupus familiaris, UniProt A0A8I3RSX8); experiment: Radio-ligand displacement binding, CHO-K1 membranes, dog OX1R; details: read-out: OX1R affinity (Ki)
T2 sequence (A0A8I3RSX8 1-427): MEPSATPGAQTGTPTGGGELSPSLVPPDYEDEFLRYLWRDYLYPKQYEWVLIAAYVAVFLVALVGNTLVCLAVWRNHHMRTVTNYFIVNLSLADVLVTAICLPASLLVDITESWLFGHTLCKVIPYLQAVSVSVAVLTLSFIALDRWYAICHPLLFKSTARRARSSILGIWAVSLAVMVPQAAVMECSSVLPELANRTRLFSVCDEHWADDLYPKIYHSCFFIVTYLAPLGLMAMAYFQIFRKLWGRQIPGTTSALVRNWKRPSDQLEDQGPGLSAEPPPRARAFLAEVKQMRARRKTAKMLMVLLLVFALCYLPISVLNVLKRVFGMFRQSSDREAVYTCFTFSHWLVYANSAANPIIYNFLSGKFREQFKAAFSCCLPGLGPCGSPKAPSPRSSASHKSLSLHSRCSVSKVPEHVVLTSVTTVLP
Procedure: as §1, §2

[3] = target: T3, OX1R (Mus musculus, UniProt P58307); experiment: Inhibition of orexin-peptide-A-induced calcium mobilization in CHO cells, mouse OX1R; format: cell-based
T3 construct: expressed in transfected cells; host or cells: CHO-K1
T3 sequence (P58307 1-416): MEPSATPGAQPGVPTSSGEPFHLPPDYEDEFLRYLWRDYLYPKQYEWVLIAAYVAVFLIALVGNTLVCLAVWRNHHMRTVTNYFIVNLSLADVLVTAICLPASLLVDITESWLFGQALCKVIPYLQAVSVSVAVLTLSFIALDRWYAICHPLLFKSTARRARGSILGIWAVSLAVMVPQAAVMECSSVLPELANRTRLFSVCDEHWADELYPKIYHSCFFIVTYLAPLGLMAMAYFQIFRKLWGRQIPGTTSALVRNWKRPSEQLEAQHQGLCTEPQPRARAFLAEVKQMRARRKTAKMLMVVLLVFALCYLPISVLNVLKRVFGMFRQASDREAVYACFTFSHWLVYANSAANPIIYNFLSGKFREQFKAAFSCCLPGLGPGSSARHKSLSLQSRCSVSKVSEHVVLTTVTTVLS
Procedure: as §1, §2

[4] = target: T4, OX1R (Rattus norvegicus, UniProt P56718); experiment: Inhibition of orexin-peptide-A-induced calcium mobilization in CHO cells, rat OX1R; format: cell-based
T4 construct: expressed in transfected cells; host or cells: CHO-K1
T4 sequence (P56718 1-416): T3 sequence (P58307 1-416) with Q116H, H205R, I221F, A232G, R245P, G383S
Procedure: as §1, §2

[5] = target: T5, OX1R (Macaca mulatta, UniProt F7FE63); experiment: Inhibition of orexin-peptide-A-induced calcium mobilization in CHO cells, rhesus OX1R; format: cell-based, rhesus monkey
T5 sequence (F7FE63 1-425): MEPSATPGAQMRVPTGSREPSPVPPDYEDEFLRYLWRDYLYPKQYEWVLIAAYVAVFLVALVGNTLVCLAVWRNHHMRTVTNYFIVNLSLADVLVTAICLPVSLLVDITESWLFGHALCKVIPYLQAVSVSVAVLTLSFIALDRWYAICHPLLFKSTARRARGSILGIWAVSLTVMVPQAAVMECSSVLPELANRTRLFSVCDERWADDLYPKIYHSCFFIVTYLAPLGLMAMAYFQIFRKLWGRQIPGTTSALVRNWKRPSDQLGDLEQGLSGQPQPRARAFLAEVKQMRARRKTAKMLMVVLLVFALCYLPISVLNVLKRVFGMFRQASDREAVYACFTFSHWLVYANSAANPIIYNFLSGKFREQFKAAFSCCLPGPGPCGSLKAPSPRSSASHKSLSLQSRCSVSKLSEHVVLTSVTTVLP
Procedure: as §1, §2

Row | Structure (SMILES) | Kb [1] | fold OX2R selectivity (Kb) [1] | pKi [2] | Kb [3] | Kb [4] | Kb [5]
1 | COc1ccc(CNC(=O)c2cc(-c3cncc(C)c3)ncc2-c2ccccc2)nc1OC [2-SORA-7] | 13 nM | [>769] fold | 5.74 | 7950 nM | 58300 nM | 3650 nM
2 | COc1ccc(CNC(=O)c2cc(-c3cc(Cl)cc(Cl)c3)cnc2-c2cccnc2)cc1OC [2-SORA-18] | 27 nM | [3] fold | 7.07 | 208 nM | 1050 nM | 141 nM
3 | COc1ccc(CNC(=O)c2cc(-c3cncc(Cl)c3)cnc2-c2ccccn2)nc1OC [MK-1064, 5″-chloro-N-[(5,6-dimethoxypyridin-2-yl)methyl]-2,2′:5′, 3″-terpyridine-3′-carbo xamide] | 11 nM | [337] fold | 5.89 | 10300 nM | 7970 nM | 3370 nM
4 | COc1ccc(CNC(=O)c2cc(-c3cncc(C)c3)ncc2-c2nccs2)nc1OC [MK-3697] | 16 nM |  | 5.51 | 27200 nM | 36400 nM | 21400 nM
5 | Cc1ccc(-c2ncccn2)c(C(=O)N2C[C@H](COc3ccc(F)cn3)CC[C@H]2C)c1 [MK-6096] | 10 nM | [1.0] fold | 8.57 | 9 nM | 10 nM | 21 nM
